Assay results: patent publication US11352354B2, “Substituted penta-fused hexa-heterocyclic compounds, preparation method therefor, drug combination and use thereof” (Xiamen University, priority 2017, dated 2022)
Several values for one entry are separate records, joined by “and”; a condition that tells them apart may be missing. Equal values may be shown once. Entries after “also recorded” stand apart in the source; their conditions may differ.

Legend:
MDA-MB-231 cells = assay: Vacuolation of MDA-MB-231 cells caused by inhibition of compounds on PIKfyve (microscopy); assay type: cell-based; settings: for degree of vacuolation, 1 μM, 24 h / degree of vacuolation, 1 μM, 48 h / degree of vacuolation, 10 μM, 24 h / degree of vacuolation, 10 μM, 48 h: MDA-MB-231 cells; as to degree of vacuolation, 1 μM, 24 h: key: '+' represents the degree of vacuolation; ++: more '+' indicates more obvious vacuolation; +++: more '+' indicates more obvious vacuolation; ++++: more '+' indicates more obvious vacuolation; '−' represents no vacuolation; as to degree of vacuolation, 1 μM, 48 h: key: '+' represents the degree of vacuolation; ++: more '+' indicates more obvious vacuolation; +++: more '+' indicates more obvious vacuolation; ++++: more '+' indicates more obvious vacuolation; '−' represents no vacuolation; as to degree of vacuolation, 10 μM, 24 h: key: '+' represents the degree of vacuolation; ++: more '+' indicates more obvious vacuolation; +++: more '+' indicates more obvious vacuolation; ++++: more '+' indicates more obvious vacuolation; '−' represents no vacuolation; as to degree of vacuolation, 10 μM, 48 h: key: '+' represents the degree of vacuolation; ++: more '+' indicates more obvious vacuolation; +++: more '+' indicates more obvious vacuolation; ++++: more '+' indicates more obvious vacuolation; '−' represents no vacuolation
Procedure, shortened: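 MDA-MB-231 cells in 12-well plates at 37 °C, 5% CO2 were observed by microscopy after 24 and 48 h of culture for cytoplasmic vacuolation as a readout of PIKfyve inhibition. Scoring was semi-quantitative, from − (none) to increasing +.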

PIKfyve protein = PIKfyve protein (Homo sapiens (Human), UniProt Q9Y2I7); assay: Dissociation equilibrium constant (Kd) of compound and PIKfyve protein, DiscoverX KINOMEscan; assay type: binding; settings: eleven 3-fold dilutions, curve fitting
Sequence of PIKfyve protein (Q9Y2I7 whole entry): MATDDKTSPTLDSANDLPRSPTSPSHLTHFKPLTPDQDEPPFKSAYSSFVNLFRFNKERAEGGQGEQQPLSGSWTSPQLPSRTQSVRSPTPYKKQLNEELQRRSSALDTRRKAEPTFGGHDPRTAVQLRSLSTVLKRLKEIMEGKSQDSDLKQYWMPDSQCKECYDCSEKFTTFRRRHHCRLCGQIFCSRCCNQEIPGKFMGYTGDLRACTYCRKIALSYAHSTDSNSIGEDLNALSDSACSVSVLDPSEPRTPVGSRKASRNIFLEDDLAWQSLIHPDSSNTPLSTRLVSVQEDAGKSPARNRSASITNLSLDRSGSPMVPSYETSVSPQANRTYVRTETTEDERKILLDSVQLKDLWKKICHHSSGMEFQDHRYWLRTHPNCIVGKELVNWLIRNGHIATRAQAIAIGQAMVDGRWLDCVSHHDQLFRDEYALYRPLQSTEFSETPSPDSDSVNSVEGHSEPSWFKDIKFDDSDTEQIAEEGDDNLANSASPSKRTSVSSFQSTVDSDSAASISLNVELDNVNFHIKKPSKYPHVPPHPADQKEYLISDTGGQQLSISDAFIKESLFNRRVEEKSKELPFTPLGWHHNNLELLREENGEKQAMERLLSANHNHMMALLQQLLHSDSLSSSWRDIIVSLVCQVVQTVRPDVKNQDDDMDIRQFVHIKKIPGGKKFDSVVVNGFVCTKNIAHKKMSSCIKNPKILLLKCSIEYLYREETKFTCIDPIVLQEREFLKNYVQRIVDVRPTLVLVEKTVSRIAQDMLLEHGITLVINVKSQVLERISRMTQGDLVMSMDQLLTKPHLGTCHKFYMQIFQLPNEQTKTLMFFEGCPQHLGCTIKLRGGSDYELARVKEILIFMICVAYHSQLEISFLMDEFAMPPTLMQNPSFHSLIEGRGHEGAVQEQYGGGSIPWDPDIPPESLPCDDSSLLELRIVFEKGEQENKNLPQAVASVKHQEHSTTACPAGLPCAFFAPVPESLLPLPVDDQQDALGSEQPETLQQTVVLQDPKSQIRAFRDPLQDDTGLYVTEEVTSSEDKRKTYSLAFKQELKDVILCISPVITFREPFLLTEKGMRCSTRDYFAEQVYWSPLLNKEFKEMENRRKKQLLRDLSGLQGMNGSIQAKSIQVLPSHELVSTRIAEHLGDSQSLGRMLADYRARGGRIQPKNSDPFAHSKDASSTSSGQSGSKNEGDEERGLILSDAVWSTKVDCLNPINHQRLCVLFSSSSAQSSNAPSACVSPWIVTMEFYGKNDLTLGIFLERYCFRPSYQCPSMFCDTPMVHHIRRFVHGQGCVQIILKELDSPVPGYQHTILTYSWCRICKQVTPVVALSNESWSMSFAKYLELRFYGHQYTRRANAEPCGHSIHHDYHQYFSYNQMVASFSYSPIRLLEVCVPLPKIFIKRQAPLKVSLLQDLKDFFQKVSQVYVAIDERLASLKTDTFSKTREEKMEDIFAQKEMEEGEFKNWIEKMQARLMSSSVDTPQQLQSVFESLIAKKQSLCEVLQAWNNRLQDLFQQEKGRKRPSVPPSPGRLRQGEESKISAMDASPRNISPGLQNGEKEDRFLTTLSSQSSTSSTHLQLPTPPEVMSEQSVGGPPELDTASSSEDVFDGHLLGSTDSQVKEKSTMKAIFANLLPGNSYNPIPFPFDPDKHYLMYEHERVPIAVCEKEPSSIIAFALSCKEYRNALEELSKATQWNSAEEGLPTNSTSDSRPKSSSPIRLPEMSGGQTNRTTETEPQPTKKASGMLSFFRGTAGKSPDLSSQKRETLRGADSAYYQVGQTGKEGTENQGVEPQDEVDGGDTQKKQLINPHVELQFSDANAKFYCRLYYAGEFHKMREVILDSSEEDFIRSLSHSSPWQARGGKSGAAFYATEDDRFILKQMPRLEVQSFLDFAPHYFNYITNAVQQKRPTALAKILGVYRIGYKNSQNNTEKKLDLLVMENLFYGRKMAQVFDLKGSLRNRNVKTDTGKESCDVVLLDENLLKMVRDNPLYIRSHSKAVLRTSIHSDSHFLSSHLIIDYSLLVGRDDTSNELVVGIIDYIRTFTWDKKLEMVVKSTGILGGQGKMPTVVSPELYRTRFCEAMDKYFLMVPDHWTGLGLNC
Experimental: II. Determination of Dissociation Equilibrium Constant (Kd Value) of Compound and PIKfyve Protein
The Kd value was determined by DiscoverX's KINOMEscan™ technology according to the following steps:
1. Preparation of magnetic beads: biotin-labeled small molecule ligand and avidin-coated magnetic beads were allowed to interact at room temperature for 30 minutes, and then added with excess biotin, followed by washing with a blocking solution (1% BSA, 0.05% Tween 20, 1 mM DTT) to remove unbound ligand.
2. Binding reaction: in a 384 plate, 0.02 mL system, DNA-labeled protein, small molecule ligand-bound magnetic beads, and different concentrations of compound to be tested were mixed in a reaction solution (0.17×PBS, 0.05% Tween 20, 6 mM DTT) at room temperature with shaking for 1 hr, to which was added an eluant (1×PBS, 0.05% Tween 20) for elution. Magnetic beads were resuspended by an eluant (1×PBS, 0.05% Tween 20, 0.5 μM non-biotin-labeled small molecule ligand), and shaken at room temperature for 30 min before separating out the eluant.
3. Determination of Kd value: the content of protein in the above eluate was determined by qPCR. Eleven 3-fold dilution concentrations were determined for the compound to be tested, with 3 DMSO controls for each concentration, and the Kd value was obtained by curve fitting.

JeKo-1 cells = assay: Tumor cell growth inhibition by MTS method, JeKo-1; assay type: cell-based; settings: Homo sapiens, JeKo-1, 120 h, 5 days of culture; for inhibition at 10 µM: read-out: cell growth inhibition rate of compounds at 10 μM
Procedure, shortened: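 Cells seeded at 20000 per well, treated with 8-point 3-fold dilutions from 10 mM DMSO stock in triplicate, 0.1% DMSO controls. MTS read at OD490; IC50 from inhibition rates, or % inhibition at 10 μM.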

Toledo cells = assay: Growth inhibition of PIKfyve-mediated tumor cells by Cell Titer Glo method, Toledo; assay type: cell-based; settings: Homo sapiens, 120 h, CellTiter-Glo, 5 days of culture, read-out: Inhibition rate % (Toledo)
Experimental: (§1) IV. Determination of Growth Inhibition Rates of Compounds Against PIKfyve-Mediated Tumor Cells by Cell Titer Glo Method
(§2) 1. Cell plating: cells in logarithmic growth phase were counted and inoculated in 384-well plate.
(§3) 3. […] RLU was measured on PHERAstar Plus.

ST486 cells = assay: Growth inhibition of PIKfyve-mediated tumor cells by Cell Titer Glo method, ST486; assay type: cell-based; settings: Homo sapiens, 120 h, CellTiter-Glo, 5 days of culture, read-out: Inhibition rate % (ST486)
Experimental: as §1, §2, §3

Row | Structure (SMILES) | degree of vacuolation, 1 μM, 24 h (MDA-MB-231 cells) | degree of vacuolation, 1 μM, 48 h (MDA-MB-231 cells) | degree of vacuolation, 10 μM, 24 h (MDA-MB-231 cells) | degree of vacuolation, 10 μM, 48 h (MDA-MB-231 cells) | Kd (PIKfyve protein) | inhibition at 10 µM (JeKo-1 cells) [%] | inhibition at 3.3 µM (Toledo cells) [%] | inhibition at 3.3 µM (ST486 cells) [%] | IC50 (JeKo-1 cells) [nM] | vacuolation of MDA-MB-231 cells (FIG. 1) (MDA-MB-231 cells; 1 μmol/L, time and concentration dependence)
1 | Cc1ccc(C(=O)Nc2cc(C(F)(F)F)ccc2Cl)cc1Nc1nc(-c2cccnc2)c2[nH]ccc2n1 [V-c-14] | ++ | − | ++ | ++ | 20 nM | 46.6 | 99.6 | 52.2 |  | 
2 | COc1ccc(C(F)(F)F)cc1NC(=O)c1ccc(C)c(Nc2nc(-c3cccnc3)c3[nH]ccc3n2)c1 [V-c-12] | +++ | +++ | +++ | +++ | > 30000 nM |  | 95.6 | 72.3 | 2790 | 
3 | Cc1ccc(NS(=O)(=O)c2cccc(C(F)(F)F)c2)cc1Nc1nc(-c2cccnc2)c2[nH]ccc2n1 [V-c-20] | − | ++ | − | ++ | 1000 nM |  | 99.7 | 33.3 | 9410 | 
4 | Cc1ccc(NC(=O)c2ccc(CN3CCN(C)CC3)c(C(F)(F)F)c2)cc1Nc1nc(-c2cccnc2)c2[nH]ccc2n1 [V-c-22] |  |  |  |  | 21000 nM |  | 64.2 | 57.1 | 1540 | 
5 | O=C(Nc1cccc(Nc2nc(-c3cccnc3)c3[nH]ccc3n2)c1)c1cccc(C(F)(F)F)c1 [V-c-18] | +++ | +++ | +++ | +++ | 6.4 nM |  | 95.2 | 96 | 862 | 
6 | Cc1ccc(C(=O)Nc2cc(C(F)(F)F)ccc2F)cc1Nc1nc(-c2cccnc2)c2[nH]ccc2n1 [V-c-13] | ++ | − | ++ | ++ | 16 nM | 34.3 | 99.7 | 85.2 |  | 
7 | O=C(Nc1cccc(C(F)(F)F)c1)c1cccc(Nc2nc(-c3cccnc3)c3[nH]ccc3n2)c1 [V-c-4] | ++ | ++ | +++ | +++ | 33 nM |  | 99.5 | 76.2 | 5940 | 
8 | Cc1ccc(NC(=O)c2cccc(C(F)(F)F)c2)cc1Nc1nc(-c2cccnc2)c2[nH]ccc2n1 [V-c-19] | +++ | +++ | +++ | +++ | 16 nM and 15 nM |  | 97.3 | 70.6 | 2090 | induces vacuolation of MDA-MB-231 cells, with good time dependence; also recorded: induces vacuolation of MDA-MB-231 cells, with good concentration dependence
9 | Cc1cn(-c2cc(NC(=O)c3ccc(C)c(Nc4nc(-c5cccnc5)c5[nH]ccc5n4)c3)cc(C(F)(F)F)c2)cn1 [V-c-10] | − | − | ++ | ++ | 3500 nM |  | 94.8 | 93 |  | 
10 | c1cncc(-c2nc(Nc3cc(N4CCOCC4)cc(N4CCOCC4)c3)nc3cc[nH]c23)c1 [V-c-2] | − | − | − | − | 2000 nM |  | < 10 | 18 |  | 
11 | Cc1ccc(NC(=S)Nc2cccc(C(F)(F)F)c2)cc1Nc1nc(-c2cccnc2)c2[nH]ccc2n1 [V-c-16] | ++ | ++ | ++ | ++ | 110 nM |  | 99.5 | 60.3 | 6220 | 
12 | Cc1ccc(NC(=O)Nc2cccc(C(F)(F)F)c2)cc1Nc1nc(-c2cccnc2)c2[nH]ccc2n1 [V-c-15] | ++ | ++ | ++ | ++ | 140 nM | 35.1 | 99.6 | 57.5 |  | 
13 | Cc1ccc(C(=O)Nc2cccc(NS(C)(=O)=O)c2)cc1Nc1nc(-c2cccnc2)c2[nH]ccc2n1 [V-c-6] | + | ++ | +++ | +++ | 16 nM |  | 93.9 | 69.9 | 4950 | 
14 | Cc1ccc(NC(=O)c2ccc(C(F)(F)F)cc2)cc1Nc1nc(-c2cccnc2)c2[nH]ccc2n1 [V-c-23] | ++ | − | ++ | − | 33 nM | 15.8 | 94.9 | 27.2 |  | 
15 | Cc1ccc(C(=O)Nc2ccc(CN3CCN(C)CC3)c(C(F)(F)F)c2)cc1Nc1nc(-c2cccnc2)c2[nH]ccc2n1 [V-c-11] | − | − | − | − | 700 nM |  | 95.3 | 96.2 |  | 
16 | Cc1ccc(C(=O)Nc2cccc(OC(F)(F)F)c2)cc1Nc1nc(-c2cccnc2)c2[nH]ccc2n1 [V-c-8] | +++ | +++ | +++ | +++ | 13 nM | 39 | 96.3 | 51 |  | 
17 | Cc1ccc(NC(=O)c2cccc(C(F)(F)F)c2)cc1Nc1nc(-c2cccnc2)c2c(ccn2C)n1 [V-c-40] | + | +++ | + | +++ | 380 nM |  | 98.8 | 57.1 |  | 
